Assay results: patent publication US10315998B2, “Amide compound and the preparation method and use thereof” (SHENYANG SINOCHEM AGROCHEMICALS R&D CO., LTD, priority 2015, dated 2019)

What was measured:
Format in all cases: in vivo
[1] = test system: cucumber downy mildew (Pseudoperonospora cubensis (Berk. et Curt.) Rostov); assay: Protective effect against cucumber downy mildew on potted plants; conditions: grading 100-0 (100 no infection, 0 most serious infection), read-out: protectant activity against cucumber downy mildew
Method: (§1) Fungicidal activity of the compounds in the present invention against many kinds diseases were carried out. The procedure of fungicidal activity determination is as follows:
(§2) The fungicidal activity was tested in vivo manner on the potted plants. The test compounds of the present invention were dissolved in proper solvent (choosing the solvent according their dissolving ability to the compounds, the solvents could be acetone, methanol or N,N-dimethylformide, etc. The volume ratio between solvent and liquid sprayed was equal to or less than 0.05) and dilute with water contain 0.1% Tween 80 to given concentrations. Compounds of present invention was sprayed onto the leaves of seedling according to the designed concentration. Meanwhile, water was set as the blank control, three replicates were set for each treatment, the spore suspension were inoculated on the second day after treatment, then the plants were placed in an artificial climate chamber (temperature: day 25° C., night 20° C., relative humidity 95 to 100%). 24 hours later, the plants were moved to green house to cultivated. The plants which not need to control humidity was inoculated spore suspension in green house and cultivated in green house directly. The results were investigated after the plants were fully infected relative to the blank control (usually one week). The test resluts grading 100-0 refers to the <A Manual of Assessment Keys for Plant Diseases> which edited by American Phytopathological Society. “100” refer to no infection and “0” refer to the most serious infection
Protective effect against cucumber downy mildew (Pseudoperonospora cubensis (Berk. et Curt.) Rostov)
According the test method described above, parallel test were carried out between compounds 2, 4, 11, 13, 71 and 111 of present invention and the known compounds KC1, KC2, KC3, KC4, KC5 and KC6 (The compounds were self-made and the structure was confirmed by ^1H NMR consistent with the description of the procedures).

[2] = test system: cucumber anthracnose (Colletotrichum orbiculare); assay: Protective effect against cucumber anthracnose on potted plants; conditions: 400 ppm, foliar spray
Method: as §1
The fungicidal activity was tested in vivo manner on the potted plants. The test compounds of the present invention were dissolved in proper solvent (choosing the solvent according their dissolving ability to the compounds, the solvents could be acetone, methanol or N,N-dimethylformide, etc. The volume ratio between solvent and liquid sprayed was equal to or less than 0.05) and dilute with water contain 0.1% Tween 80 to given concentrations. Compounds of present invention was sprayed onto the leaves of seedling according to the designed concentration. Meanwhile, water was set as the blank control, three replicates were set for each treatment, the spore suspension were inoculated on the second day after treatment, then the plants were placed in an artificial climate chamber (temperature: day 25° C., night 20° C., relative humidity 95 to 100%). 24 hours later, the plants were moved to green house to cultivated. The plants which not need to control humidity was inoculated spore suspension in green house and cultivated in green house directly. The results were investigated after the plants were fully infected relative to the blank control (usually one week). […]

[3] = test system: corn rust (Puccinia sorghi Schw.); assay: Protective effect against corn rust on potted plants; conditions: grading 100-0
Method: as §1, §2
Protective Effect Against Corn Rust (Puccinia sorghi Schw.):
According the test method described above, parallel test were carried out between compound 13 of present invention and the known compound KC1.
According the test method described above, parallel test were carried out between compound 11 of present invention and the known compound KC2.
According the test method described above, parallel test were carried out between compound 71 of present invention and the known compounds KC5 and KC6.

CCCCC(C)Oc1cccc(NC(=O)c2cn(C)nc2C(C)C)c1C (stereo not shown) [Compound 2]
pest or weed control at 400 ppm [1]: 100%

CCCCC(C)Oc1cccc(NC(=O)c2c(C)nn(C)c2Cl)c1C (stereo not shown) [Compound 4]
protective effect against cucumber anthracnose [2]: ≥ 80% | pest or weed control at 400 ppm [1]: 100%

CCCCC(C)Oc1cccc(NC(=O)c2c(C(F)F)nn(C)c2Cl)c1C (stereo not shown) [Compound 11]
pest or weed control at 400 ppm [1]: 85% | protectant activity against corn rust ([3]; 0.39 ppm, table 4): 100 | protectant activity against corn rust ([3]; 1.5625 ppm, table 4): 100 | protectant activity against corn rust ([3]; 6.25 ppm, table 4): 100

CCCCC(C)Oc1cccc(NC(=O)c2cn(C)nc2C(F)(F)F)c1C (stereo not shown) [Compound 13]
pest or weed control at 400 ppm [1]: 100% | protectant activity against corn rust ([3]; 6.25 ppm, table 3): 100 | protectant activity against corn rust ([3]; 400 ppm, table 3): 100

CCCCC(C)Oc1cccc(NC(=O)c2sc(C)nc2C(F)(F)F)c1C (stereo not shown) [Compound 71]
pest or weed control at 400 ppm [1]: 100% | protectant activity against corn rust ([3]; 1.56 ppm, table 5): 100 | protectant activity against corn rust ([3]; 6.25 ppm, table 5): 100 | protectant activity against corn rust ([3]; 400 ppm, table 5): 100

CCCC(C)Oc1cccc(NC(=O)c2sc(C(F)(F)F)nc2CC)c1C (stereo not shown) [Compound 111]
pest or weed control at 400 ppm [1]: 100%

Cc1c(NC(=O)c2cn(C)nc2C(F)(F)F)cccc1OC(C)C [KC1, reference compound]
pest or weed control at 400 ppm [1]: 0% | protectant activity against corn rust ([3]; 6.25 ppm, table 3): 50 | protectant activity against corn rust ([3]; 400 ppm, table 3): 100

Cc1c(NC(=O)c2c(C(F)(F)F)nn(C)c2Cl)cccc1OC(C)C [KC2, reference compound]
pest or weed control at 400 ppm [1]: 0% | protectant activity against corn rust ([3]; 0.39 ppm, table 4): 0 | protectant activity against corn rust ([3]; 1.5625 ppm, table 4): 65 | protectant activity against corn rust ([3]; 6.25 ppm, table 4): 100

Cc1nn(C)cc1C(=O)Nc1cccc(OC(C)C)c1C [KC3, reference compound]
pest or weed control at 400 ppm [1]: 0%

Cc1nn(C)c(Cl)c1C(=O)Nc1cccc(OC(C)C)c1C [KC4, reference compound]
pest or weed control at 400 ppm [1]: 0%

Cc1nc(C)c(C(=O)Nc2cccc(OC(C)C)c2)s1 [KC5, reference compound]
pest or weed control at 400 ppm [1]: 0%
